# Reference: article PMC13429874, “ABHD2 activity is not required for the non-genomic action of progesterone on human sperm” (Human Reproduction (Oxford, England), 2026)
# Legend:
# [1] = target: T1, full-length human ABHD2 (ABHD2^FL) (Homo sapiens, UniProt P08910); assay: ABHD2^FL enzymatic activity assay with 7-HCA substrate; type: biochemical; settings: Supplementary Table S2; read-out: IC50 measured in ABHD2^FL in the 7-HCA Assay
# T1 construct: TEV site-eGFP-8xHis (C, cleaved yes); made in house; host or cells: SF9 insect cells (baculovirus)
# T1 sequence (P08910 1-425): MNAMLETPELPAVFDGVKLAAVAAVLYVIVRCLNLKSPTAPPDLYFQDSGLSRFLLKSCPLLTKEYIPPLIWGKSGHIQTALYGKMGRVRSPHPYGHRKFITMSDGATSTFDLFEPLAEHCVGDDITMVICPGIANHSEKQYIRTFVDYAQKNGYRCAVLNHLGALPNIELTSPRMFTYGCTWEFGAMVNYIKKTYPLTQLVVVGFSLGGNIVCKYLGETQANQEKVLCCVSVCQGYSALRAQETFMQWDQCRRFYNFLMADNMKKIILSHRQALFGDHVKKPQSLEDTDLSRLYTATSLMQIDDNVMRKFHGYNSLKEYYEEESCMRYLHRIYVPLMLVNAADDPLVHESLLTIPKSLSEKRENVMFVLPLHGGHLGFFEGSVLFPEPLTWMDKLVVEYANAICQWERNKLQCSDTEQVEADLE
# [2] = target: T2, ABHD2^L33–E425 (Homo sapiens, UniProt P08910); assay: Differential scanning fluorimetry (DSF) with purified ABHD2^L33–E425; type: binding
# T2 construct: expression for ABHD2 amino acids L33–E425, in which a predicted transmembrane domain (amino acids 1–32) is removed; His6-FLAG (N); made in house; host or cells: E. coli BL21(DE3)-R3-pRARE2
# T2 sequence (P08910 33-425): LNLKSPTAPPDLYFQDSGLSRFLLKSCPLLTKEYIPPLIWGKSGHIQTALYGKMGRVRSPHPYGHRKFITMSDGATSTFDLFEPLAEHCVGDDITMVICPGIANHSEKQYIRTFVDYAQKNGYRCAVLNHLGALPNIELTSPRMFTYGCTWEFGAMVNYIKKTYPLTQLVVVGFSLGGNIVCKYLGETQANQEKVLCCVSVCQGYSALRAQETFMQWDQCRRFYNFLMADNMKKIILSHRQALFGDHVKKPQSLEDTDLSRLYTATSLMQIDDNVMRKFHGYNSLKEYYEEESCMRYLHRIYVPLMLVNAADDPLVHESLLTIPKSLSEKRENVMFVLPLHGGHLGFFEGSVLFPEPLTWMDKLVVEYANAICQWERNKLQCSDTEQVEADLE
# [3] = test system: human sperm; assay: Sperm intracellular Ca2+ measurements (Fluo-4); type: cell-based
# Experimental: Measurements of the changes in sperm intracellular Ca^2+ concentration ([Ca^2+]i) were performed on motile human sperm purified by swim-up. Semen samples were allowed to liquefy for 15–60 min at 37°C, and 0.5–1 ml liquified semen was layered beneath 4 ml human tubal fluid medium (HTF; 97.8 mM NaCl, 4.69 mM KCl, 0.2 mM MgSO4, 0.37 mM KH2PO4, 2.04 mM CaCl2, 2.78 mM glucose, 0.33 mM sodium pyruvate, 21.4 mM lactic acid, 4 mM NaHCO3, and 21 mM HEPES pH 7.35 adjusted with NaOH) in 50 ml conical tubes. Motile sperm were allowed to swim up into the HTF for 60–90 min at 37°C, collected, washed twice (700 × g, 20 min, 37°C), and resuspended in HTF containing 3 mg/ml HSA at a density of 1 × 10^7 sperm/ml. Changes of [Ca^2+]i in motile human sperm were measured as previously described ([Rennhack et al., 2018]), using a fluorescence plate-reader assay (FLUOstar Omega, BMG LABTECH) with 384-well plates. Swim-up-purified sperm were loaded with Fluo4-AM (5 μM, Thermo Fisher Scientific, Waltham, MA, USA) and Pluronic F-127 (0.05% w/v) for 20 min at 37°C. Excess dye was removed by centrifugation at 700 × g for 5 min, supernatant removal, and resuspension to 5 × 10^6 sperm/ml in HTF.
# For recordings, wells of a 384-well plate were filled with 50 μl of the dye-loaded sperm suspension. Fluorescence was excited at 480 nm, and emission was recorded at 520 nm using a plate reader (Fluostar Omega, BMG Labtech). After establishing a baseline for at least 60 s, 25 µl test compound solutions were added and the fluorescence response recorded. After 4 min, 7.5 µl progesterone was added to reach a final concentration of 3 µM, and ensuing changes in fluorescence were recorded. For the analysis of compound-evoked Ca^2+ signal, basal fluorescence (F0) was determined prior to compound addition. For the determination of inhibitory effects of compounds on progesterone-evoked Ca^2+ signals, basal fluorescence (F0) was determined before progesterone addition. The CatSper inhibitor TS150 ([Schierling et al., 2023]) was used as a control. Each compound was tested in technical duplicates across ≥3 biological replicates, using sperm from at least two donors, and performed on at least two separate days.
# Data analysis and graphical representation were performed with GraphPad Prism software version 10.6.1 (San Diego, CA, USA). Changes in Fluo-4 fluorescence are depicted as ΔF/F0 (%), i.e. the change in fluorescence (ΔF) relative to the mean basal fluorescence (F0) before application of buffer or compounds/ligands, to correct for intra- and inter-experimental variations in basal fluorescence among individual wells or to correct for compound-evoked changes in fluorescence. Signal amplitudes evoked in the presence of compounds were normalized to the maximal signal amplitude evoked by 3 µM progesterone in the absence of the compound (set to 1) to ease comparisons between experiments.
smiles,measurement,setting,value
CC1CCCN(C(=O)c2ccccc2C(=O)c2ccccc2)C1 (centres unmarked) [Compound 4],IC50,[1],1200 nM
same,"effect on melting temperature / thermal stability of ABHD2^L33-E425 (DSF), in words","[2]; 10 µM compound, 30 min pre-incubation",increased melting temperature
same,ΔTm shift for ABHD2^L33-425 determined by DSF,[2]; purified protein,14 °C
same,compound-evoked changes in [Ca2+]i,[3]; 10 µM compound,only minuscule changes
same,effect on progesterone-induced Ca2+ signal (amplitude and waveform),"[3]; compounds 10 µM, TS150 60 µM, progesterone 3 µM",similar
